Source: publication PMC9571937, “Synthesis and Structure–Activity Relationship Studies of Pyrido [1,2-e]Purine-2,4(1H,3H)-Dione Derivatives Targeting Flavin-Dependent Thymidylate Synthase in Mycobacterium tuberculosis” (Molecules, 2022)
Read-outs that look alike come from different tables or passages of the source.

Biological target: Mtb ThyX (Mycobacterium tuberculosis, UniProt P9WG57)
Assay: M. tuberculosis ThyX NADPH oxidase assay
Type: biochemical
Conditions: for inhibition at 50 µM: screening hits (Figure 1), read-out: % inhibition (ThyX)
[1] = 200 μM compound, NADPH oxidase assay, 50 µM FAD
[2] = 200 µM, screening of in-house compound libraries, read-out: ThyX inhibitory effect
[3] = 200 μM compound, NADPH oxidase assay, 50 µM FAD, read-out: Inhibition % (Mtb ThyX)

Mtb ThyX, sequence (P9WG57 whole entry): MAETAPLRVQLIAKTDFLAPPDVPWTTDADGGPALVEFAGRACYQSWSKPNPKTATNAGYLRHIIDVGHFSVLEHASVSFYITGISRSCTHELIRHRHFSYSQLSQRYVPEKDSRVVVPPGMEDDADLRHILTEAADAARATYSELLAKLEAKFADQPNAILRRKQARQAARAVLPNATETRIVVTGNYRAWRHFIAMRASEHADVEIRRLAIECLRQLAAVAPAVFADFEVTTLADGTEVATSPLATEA

Compound	inhibition at 200 µM [3] [%]	also measured
1-[[p-(Dimethoxyphosphorylmethyl)phenyl]methyl]-3-(4-fluorophenyl)purino [9,8-a]pyridine-2,4-dione [Compound 13f]		Inhibition % (Mtb ThyX) [1]: 5.6%
3-(p-Fluorophenyl)-8-hept-1-ynyl-1H-purino [9,8-a]pyridine-2,4-dione [Compound 20d]		Inhibition % (Mtb ThyX) [1]: 0%
3-(p-Fluorophenyl)-8-hex-1-ynyl-1H-purino [9,8-a]pyridine-2,4-dione [Compound 20c]		Inhibition % (Mtb ThyX) [1]: 18.6%
Cc1ccn2c(c1)nc1c(-c3ccc(OC(F)(F)F)cc3)nc(C(F)(F)F)nc12 [Compound 5]		inhibition at 50 µM: 13.2%; inhibition at 200 µM [2]: 23.1%
OB(O)c1ccc(Sc2nc(C(F)(F)F)nc3c2nc2ccccn23)cc1 [Compound 6]		inhibition at 50 µM: 17.1%; inhibition at 200 µM [2]: 33.2%
O=c1[nH]c2c(nc3ccccn32)c(=O)n1-c1ccc(Br)cc1 [Compound 9c, 3-(4-Bromophenyl)pyrido [1,2-e]purine-2,4(1H,3H)-dione]	52.2	
O=c1[nH]c2c(nc3ccccn32)c(=O)n1-c1ccc(C(F)(F)F)cc1 [Compound 9e, 3-(4-(Trifluoromethyl)phenyl)pyrido [1,2-e]purine-2,4(1H,3H)-dione]	31.7	
COc1ccc(-n2c(=O)[nH]c3c(nc4ccccn43)c2=O)cc1 [Compound 9f, 3-(p-Methoxyphenyl)pyrido [1,2-e]purine-2,4(1H,3H)-dione]	8.1	
O=c1[nH]c2c(nc3ccccn32)c(=O)n1-c1cccc(F)c1 [Compound 9g, 3-(3-Fluorophenyl)pyrido [1,2-e]purine-2,4(1H,3H)-dione]	12.8	
O=c1[nH]c2c(nc3ccccn32)c(=O)n1-c1ccc(F)c(F)c1 [Compound 9h, 3-(3,4-Difluorophenyl)pyrido [1,2-e]purine-2,4(1H,3H)-dione]	22.7	
O=c1[nH]c2c(nc3ccccn32)c(=O)n1-c1ccc(F)cc1F [Compound 9i, 3-(2,4-Difluorophenyl)pyrido [1,2-e]purine-2,4(1H,3H)-dione]	6.6	
Cc1ccc(-n2c(=O)[nH]c3c(nc4ccccn43)c2=O)cc1C [Compound 9j, 3-(3,4-Dimethylphenyl)pyrido [1,2-e]purine-2,4(1H,3H)-dione]	19.9	
O=c1[nH]c2c(nc3ccccn32)c(=O)n1Cc1ccccc1 [Compound 10a, 3-(Benzyl)pyrido [1,2-e]purine-2,4(1H,3H)-dione]	22.3	
O=c1[nH]c2c(nc3ccccn32)c(=O)n1Cc1ccc(F)cc1 [Compound 10b, 3-(p-Fluorobenzyl)pyrido [1,2-e]purine-2,4(1H,3H)-dione]	21.2	
O=c1[nH]c2c(nc3ccccn32)c(=O)n1Cc1ccc(C(F)(F)F)cc1 [Compound 10c, 3-(p-(Trifluoromethyl)benzyl)pyrido [1,2-e]purine-2,4(1H,3H)-dione]	20.7	
Cc1ccc(Cn2c(=O)[nH]c3c(nc4ccccn43)c2=O)cc1 [Compound 10d, 3-(p-Methylbenzyl)pyrido [1,2-e]purine-2,4(1H,3H)-dione]	20.2	
O=c1c2nc3ccccn3c2[nH]c(=S)n1-c1ccc(F)cc1 [Compound 11, 3-(4-Fluorophenyl)-2-thioxo-2,3-dihydropyrido [1,2-e]purin-4(1H)-one]	19.8	
O=c1c2nc3ccccn3c2[nH]c(=S)n1Cc1ccccc1 [Compound 12, 3-Benzyl-2-thioxo-2,3-dihydropyrido [1,2-e]purin-4(1H)-one]	0	
O=c1c2nc3ccccn3c2n(Cc2ccccc2)c(=O)n1-c1ccc(F)cc1 [Compound 13a, 1-Benzyl-3-(4-fluorophenyl)purino [9,8-a]pyridine-2,4-dione]	23.2	
Cc1ccc(Cn2c(=O)n(-c3ccc(F)cc3)c(=O)c3nc4ccccn4c32)cc1 [Compound 13b, 3-(p-Fluorophenyl)-1-[(p-methylphenyl)methyl]purino[9,8-a]pyridine-2,4-dione]	10.9	
